Values after ≈ are worked out from the molar mass of the structure shown.
How the values were obtained:
Typhlodromus pyri = assay: LR50; higher = less toxic; conditions: chronic/long-term; duration: 7 days; mortality
Aphidius rhopalosiphi = assay: LR50; higher = less toxic; conditions: acute; duration: 48 hours; mortality
Bibionidae = conditions: chronic/long-term; duration: 28 days; no effects
Lepomis macrochirus = conditions: acute; duration: 96 hours; mortality
Daphnia magna = conditions: chronic/long-term; duration: 21 days; reproduction
Colinus virginianus = conditions: for LD50: acute, oral, mortality
Mus musculus = conditions: acute; oral; F; mortality
Apis mellifera = conditions: acute; duration: 48 hours; oral; unspecified; mortality
Anas platyrhynchos = conditions: reproductive
Pimephales promelas = conditions: chronic/long-term; duration: 28 days; body weight
Canidae = conditions: chronic; duration: 1 years; oral; Dog Other; clinical signs

Structure (SMILES): CC(C)C1CCC(Cc2ccc(Cl)cc2)C1(O)Cn1cncn1 (stereo not drawn) [Ipconazole]
- LR50 (Typhlodromus pyri): 17.4 g/ha
- LR50 (Aphidius rhopalosiphi): 35.1 g/ha
- NOEC (Bibionidae): 3.52 mg/L
- LC50 (Lepomis macrochirus): 1.3 µg/mL (≈ 3.89 µM)
- NOEC (Daphnia magna): 10.9 µg/L
- LD50 (Colinus virginianus; diet): > 300 mg/kg-day
- LD50 (Colinus virginianus): 962 mg/kg
- NOEL (Colinus virginianus; reproduction developmental): 4.3 mg/kg-day
- LD50 (Mus musculus): 468 mg/kg
- LD50 (Apis mellifera): > 100 µg/piece
- LC50 (Tagia sp.; acute, duration: 14 days, mortality): 597 mg/kg
- NOEC (Tagia sp.; chronic/long-term, duration: 8 weeks, reproduction): 0.78 mg/kg
- NOEL (Anas platyrhynchos): 27.1 mg/kg-day
- NOEC (Pimephales promelas): 0.44 µg/L
- LD50 (Rattus norvegicus; acute, oral, F, mortality): > 2000 mg/kg
- NOAEL (Rattus norvegicus; developmental, development): 3 mg/kg-day
- NOAEL (Rattus norvegicus; reproduction developmental, body weight): 8 mg/kg-day
- NOAEL (Canidae): 1.5 mg/kg-day

Source: EPA's ToxValDB 9.5 (doi:10.2903/j.efsa.2013.3181)
